Calls of active or inactive are those of the source. The rule behind the calls is not given here.
Experiments:
NCI-H460 [1] = test: Cytotoxicity against human NCI-H460 cells assessed as reduction in cell viability incubated for 48 hrs by MTT assay; assay type: functional, cell-based; conditions: NCI-H460, 48 h
A549 = test: Cytotoxicity against human A549 cells assessed as reduction in cell viability incubated for 48 hrs by MTT assay; assay type: functional, cell-based; conditions: A549, 48 h
HepG2 = test: Cytotoxicity against human HepG2 cells assessed as reduction in cell viability incubated for 48 hrs by MTT assay; assay type: functional, cell-based; conditions: HepG2, 48 h
HT-1080 = test: Cytotoxicity against human HT-1080 cells assessed as reduction in cell viability incubated for 48 hrs by MTT assay; assay type: functional, cell-based; conditions: HT-1080, 48 h
[2] = Cytotoxicity against human MRC5 cells assessed as reduction in cell viability incubated for 48 hrs by MTT assay; assay type: toxicity, cell-based
[3] = Selectivity index, ratio of IC50 for human MRC5 cells to IC50 for human NCI-H460 cells; assay type: toxicity; conditions: MRC5 cells versus NCI-H460 cells, read-out: Ratio IC50
NCI-H460 [4] = test: Cytotoxicity against human NCI-H460 cells assessed as reduction in cell viability at 0.5 to 2 uM incubated for 48 hrs in presence of dithiothreitol by MTT assay; assay type: functional, cell-based; conditions: dose 0.5-2 µM
NCI-H460 [5] = test: Cytotoxicity against human NCI-H460 cells assessed as reduction in cell viability at 0.5 to 2 uM incubated for 48 hrs in presence of BSO by MTT assay; assay type: functional, cell-based; conditions: dose 0.5-2 µM
NCI-H460 [6] = test: Induction of intracellular ROS accumulation in human NCI-H460 cells incubated for 1 to 12 hrs by DCFH-DA dye based fluorescence assay; assay type: functional, cell-based; conditions: dose 0.5-2 µM, time 1-12 hrs
MRC5 [7] = test: Induction of intracellular ROS accumulation in human MRC5 cells at upto 2 uM incubated for 6 hrs by DCFH-DA dye based fluorescence assay; assay type: functional, cell-based
NCI-H460 [8] = test: Cytotoxicity against human NCI-H460 cells assessed as reduction in cell viability at 0.5 to 1 uM measured after 48 hrs in presence of ferrostatin-1 by MTT assay; assay type: functional, cell-based; conditions: dose 0.5-1 µM
NCI-H460 [9] = test: Cytotoxicity against human NCI-H460 cells assessed as reduction in cell viability at 0.5 to 1 uM measured after 48 hrs in presence of necrostatin-1 by MTT assay; assay type: functional, cell-based; conditions: dose 0.5-1 µM
NCI-H460 [10] = test: Cytotoxicity against human NCI-H460 cells assessed as reduction in cell viability at 0.5 to 1 uM measured after 48 hrs in presence of erastin by MTT assay; assay type: functional, cell-based; conditions: dose 0.5-1 µM
NCI-H460 [11] = test: Induction of apoptosis in human NCI-H460 cells assessed as reduction of mitochondrial membrane potential at 0.5 to 2 uM by JC-1 staining based flow cytometry analysis; assay type: functional, cell-based; conditions: dose 0.5-2 µM, time 12-36 hrs, TDE = time-dependent effect
NCI-H460 [12] = test: Induction of ferroptosis in human NCI-H460 cells assessed as increase in MDA levels at 2 uM measured after 40 hrs in presence of VE by MDA assay; assay type: functional, cell-based
NCI-H460 [13] = test: Induction of ferroptosis in human NCI-H460 cells assessed as increase in MDA levels at 2 uM measured after 40 hrs in presence of NAC by MDA assay; assay type: functional, cell-based
NCI-H460 [14] = test: Induction of ferroptosis in human NCI-H460 cells assessed as fold increase in MDA levels at 2 uM measured after 40 hrs by MDA assay; assay type: functional
NCI-H460 [15] = test: Induction of ferroptosis in human NCI-H460 cells assessed as increase in intracellular […] by measuring increase in red fluorescence intensity at 0.25 to 0.5 uM incubated for 40 hrs by C11-BODIPY staining based microscopy analysis; assay type: functional, cell-based; conditions: dose 0.25-0.5 µM
MRC5 [16] = test: Induction of ferroptosis in human MRC5 cells assessed as increase in intracellular […] by measuring increase in red fluorescence intensity at 2 uM incubated for 40 hrs by C11-BODIPY staining based microscopy analysis; assay type: functional, cell-based
NCI-H460 [17] = test: Induction of ferroptosis in human NCI-H460 cells assessed as increase in MDA levels at 2 uM measured after 40 hrs in presence of Fer-1 by MDA assay; assay type: functional, cell-based
NCI-H460 [18] = test: Induction of ferroptosis in human NCI-H460 cells assessed as increase in MDA levels at 2 uM measured after 40 hrs in presence of erastin by MDA assay; assay type: functional, cell-based
NCI-H460 [19] = test: Induction of ferroptosis in human NCI-H460 cells assessed as reduction in GPX4 protein expression measured after 24 hrs by immunoblot analysis; assay type: functional, cell-based; conditions: dose 1-2 µM
NCI-H460 [20] = test: Antitumor activity against human NCI-H460 cells xenografted in BALB/c nude mouse assessed as inhibition of tumor formation administered as IP dose and measured every two days for 27 days; assay type: functional; conditions: dose 5-15 mg/kg, time 27.0 day
[21] = Toxicity in BALB/c nude mouse assessed as animal death at 5 to 15 mg/kg, ip measured every two days for 27 days; assay type: organism-based; conditions: in vivo, 648 h, dose 5-15 mg/kg, time 27 day
[22] = Toxicity in BALB/c nude mouse assessed as effect on body weight at 5 to 15 mg/kg, ip measured every two days for 27 days; assay type: organism-based; conditions: in vivo, 648 h, dose 5-15 mg/kg, time 27 day
[23] = Toxicity in BALB/c nude mouse assessed as effect on animal activity at 5 to 15 mg/kg, ip measured every two days for 27 days; assay type: organism-based; conditions: in vivo, 648 h, dose 5-15 mg/kg, time 27 day
[24] = Toxicity in BALB/c nude mouse assessed as effect on liver at 5 to 15 mg/kg, ip measured every two days for 27 days; assay type: organism-based; conditions: in vivo, 648 h, dose 5-15 mg/kg, time 27 day
[25] = Toxicity in BALB/c nude mouse assessed as effect on kidney at 5 to 15 mg/kg, ip measured every two days for 27 days; assay type: organism-based; conditions: in vivo, 648 h, dose 5-15 mg/kg, time 27 day
[26] = Toxicity in BALB/c nude mouse assessed as effect on heart at 5 to 15 mg/kg, ip measured every two days for 27 days; assay type: organism-based; conditions: in vivo, 648 h, dose 5-15 mg/kg, time 27 day
[27] = Toxicity in BALB/c nude mouse assessed as effect on lung at 5 to 15 mg/kg, ip measured every two days for 27 days; assay type: organism-based; conditions: in vivo, 648 h, dose 5-15 mg/kg, time 27 day
NCI-H460 [28] = test: Induction of ROS accumulation in human NCI-H460 cells assessed as reduction in GSH levels by measuring yellow green fluorescence incubated for 9 hrs by fluorescence microscope based analysis; assay type: functional, cell-based
[29] = target: T1, Thioredoxin reductase (Homo sapiens) (UniProt Q16881+Q9NNW7+Q86VQ6); test: Inhibition of TrxR in human NCI-H460 cells measured after 6 hrs by fluorescence microscopy based analysis; assay type: cell-based; conditions: dose 0.5-2 µM
[30] = target: T1, Thioredoxin reductase (Homo sapiens); test: Inhibition of TrxR in human NCI-H460 cells at 2 uM measured after 6 hrs by DTNB reduction assay relative to control; assay type: cell-based
[31] = target: T1, Thioredoxin reductase (Homo sapiens); test: Inhibition of TrxR in human NCI-H460 cells measured after 6 hrs by DTNB reduction assay relative to control; assay type: cell-based; conditions: dose 0.5-2 µM
[32] = Inhibition of TrxR protein expression in human NCI-H460 cells at 2 uM measured after 6 hrs by immunoblot analysis relative to control; assay type: functional
NCI-H460 [33] = test: Antitumor activity against human NCI-H460 cells xenografted in BALB/c nude mouse assessed as induction of apoptosis at 5 to 15 mg/kg by H and E staining based analysis; assay type: functional, organism-based; conditions: dose 5-15 mg/kg
NCI-H460 [34] = test: Antitumor activity against human NCI-H460 cells xenografted in BALB/c nude mouse assessed as induction of […] at 5 to 15 mg/kg by TUNEL staining based analysis; assay type: functional, organism-based; conditions: dose 5-15 mg/kg

Q: With `O=C1/C(=C/c2cccc(C(F)(F)F)c2)CNC/C1=C\c1cccc(C(F)(F)F)c1` as the compound, how does the IC50 (NCI-H460 [1]) read?
A: The IC50 was 440 nM.

Q: What about the IC50 (A549) of the same compound?
A: The IC50 was 5800 nM.

Q: And the IC50 (HepG2)?
A: The IC50 was 670 nM.

Q: What about the IC50 (HT-1080) of the same compound?
A: The IC50 was 930 nM.

Q: And the IC50 at 48 h [2]?
A: Its IC50 at 48 h is 14100 nM.

Q: What about the selectivity ratio [3] of the same compound?
A: Its selectivity ratio is 32.

Q: What about the Activity (NCI-H460 [4]) of the same compound?
A: Its Activity is “inactive”.

Q: And the Activity (NCI-H460 [5])?
A: The Activity was “Active”.

Q: What about the Activity (NCI-H460 [6]) of the same compound?
A: The Activity was “Dose-Dependent Effect”.

Q: What about the Activity (MRC5 [7]) of the same compound?
A: The Activity was “inactive”.

Q: What about the Activity (NCI-H460 [8]) of the same compound?
A: Its Activity is “Active”.

Q: What about the Activity (NCI-H460 [9]) of the same compound?
A: The Activity was “inactive”.

Q: What about the Activity (NCI-H460 [10]) of the same compound?
A: Its Activity is “Active”.

Q: And the Activity (NCI-H460 [11])?
A: Its Activity is “Tde”.

Q: What about the Activity (NCI-H460 [12]) of the same compound?
A: The Activity was “inactive”.

Q: What about the Activity (NCI-H460 [13]) of the same compound?
A: Its Activity is “inactive”.

Q: And the “fold change (FC)” value (NCI-H460 [14])?
A: The value was 3.5.

Q: What about the Activity (NCI-H460 [15]) of the same compound?
A: The Activity was “Active”.

Q: And the Activity (MRC5 [16])?
A: The Activity was “inactive”.

Q: What about the Activity (NCI-H460 [17]) of the same compound?
A: The Activity was “inactive”.

Q: What about the Activity (NCI-H460 [18]) of the same compound?
A: Its Activity is “Active”.

Q: And the Activity (NCI-H460 [19])?
A: The Activity was “Dose-Dependent Effect”.

Q: What about the Activity (NCI-H460 [20]) of the same compound?
A: Its Activity is “Dose-Dependent Effect”.

Q: And the Activity [21]?
A: Its Activity is “Non-Toxic”.

Q: What about the Activity [22] of the same compound?
A: Its Activity is “Non-Toxic”.

Q: And the Activity [23]?
A: Its Activity is “Non-Toxic”.

Q: What about the Activity [24] of the same compound?
A: Its Activity is “Non-Toxic”.

Q: And the Activity [25]?
A: The Activity was “Non-Toxic”.

Q: And the Activity [26]?
A: Its Activity is “Non-Toxic”.

Q: And the Activity [27]?
A: Its Activity is “Non-Toxic”.

Q: What about the Activity (NCI-H460 [28]) of the same compound?
A: The Activity was “Dose-Dependent Effect”.

Q: What about the inhibition [29] of the same compound?
A: The inhibition was “Dose-Dependent Effect”.

Q: And the inhibition [30]?
A: Its inhibition is 59%.

Q: What about the inhibition [31] of the same compound?
A: The inhibition was “Dose-Dependent Effect”.

Q: What about the inhibition at 2 µM [32] of the same compound?
A: Its inhibition at 2 µM is 69%.

Q: What about the Activity (NCI-H460 [33]) of the same compound?
A: The Activity was “Active”.

Q: And the Activity (NCI-H460 [34])?
A: The Activity was “Active”.

Reference: ChEMBL document CHEMBL5385875, “Tumor killing by a dietary curcumin mono-carbonyl analog that works as a selective ROS generator via TrxR inhibition” (Eur J Med Chem, 2023)
